Test results published in publication PMC4809600, “The Influence of Chronic Wound Extracts on Inflammatory Cytokine and Histatin Stability” (PLoS ONE, 2016).

Tests used:
[1] = Stability in chronic wound extracts (CWE), capillary zone electrophoresis; format: in vitro ADME, human; conditions: 37°C, CZE; for Percentage intact, CWE 2h / Percentage intact, CWE 4h / Percentage intact, CWE 8h / Percentage intact, CWE 16h / Percentage intact, CWE 24h / Percentage intact, CWE 48h / Percentage intact, CWE 72h / Percentage intact, CWE 96h: 1 mg/ml in PBS mixed 1:1 with CWE (1 mg/ml protein, pool of 5 donors) in PBS, UV 200 nm, ratio to imidazole
In short: (§1)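 Peptides or cytokines (1 mg/ml stock) mixed 1:1 with PBS or pooled chronic-wound extract (1 mg/ml protein, three pools of five donors), ±protease inhibitor cocktail, at 37 °C for up to 96 h. Analyzed by capillary zone electrophoresis (pH 2.5 phosphate, 200 nm), with peak ratio to imidazole standard relative to 0 h as % intact.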

[2] = Stability in PBS, capillary zone electrophoresis; format: physicochemical; conditions: 1 mg/ml in PBS mixed 1:1 with PBS, 37°C, 24 h, CZE, UV 200 nm, ratio to imidazole internal standard, 0 h = 100%
Procedure: To determine the stability of the different peptides in CWE, histatins and cytokines were dissolved in PBS at 1 mg/ml. Histatins and cytokines were incubated in a 1:1 ratio with (i) PBS, (ii) CWE in PBS, or (iii) CWE in PBS containing PIC, in a total volume of 25 μl. Imidazole (Sigma-Aldrich) was added as an internal standard, with a final concentration of 100 μg/ml. The mixtures were incubated at 37°C, and samples were taken at 0, 24, 48, 72 and 96 h. For histatins containing mixtures, additional samples were taken after 2, 4, 8 and 16 h of incubation.
The samples were analyzed with a BioFocus 2000 capillary zone electrophoresis system (Bio-Rad Laboratories, Hercules, CA, USA) equipped with an uncoated fused-silica capillary of internal diameter 50 μm and a length of 24 cm. Samples were loaded by pressure injection (5 psi/sec). Separation was performed at 10 kV (cathode at the detector side) at 20°C using 0.1 M phosphate buffer (pH 2.5) as electrolyte and monitored continuously at 200 nm. Peaks were quantified with the BioFocus Integrator software. In order to quantify the percentage of intact peptides remaining after incubation with CWE, the ratios of histatins, rhIL-6 or rhCXCL8 to internal standard was set at 100% at 0h, and the ratios at the other incubation time points were related to this.

[3] = Stability in CWE with protease inhibitor cocktail (PIC), capillary zone electrophoresis; format: in vitro ADME, human; conditions: 37°C, CZE, 0 h = 100%; for Percentage intact, CWE + PIC 2h / Percentage intact, CWE + PIC 4h / Percentage intact, CWE + PIC 8h / Percentage intact, CWE + PIC 16h / Percentage intact, CWE + PIC 24h / Percentage intact, CWE + PIC 48h / Percentage intact, CWE + PIC 72h / Percentage intact, CWE + PIC 96h: 1 mg/ml in PBS mixed 1:1 with CWE (1 mg/ml protein, pool of 5 donors) in PBS containing PIC (final 1:140 v/v), ratio to imidazole
In short: as §1

- Percentage intact, CWE 2h ([1]; 0 h = 100%, experiment 1 of 3): 94.125%
- Percentage intact, CWE 2h ([1]; 0 h = 100%, experiment 2 of 3): 97.8952%
- Percentage intact, CWE 2h ([1]; 0 h = 100%, experiment 3 of 3): 100%
- Percentage intact, CWE 4h ([1]; 0 h = 100%, experiment 1 of 3): 84.7219%
- Percentage intact, CWE 4h ([1]; 0 h = 100%, experiment 2 of 3): 88.931%
- Percentage intact, CWE 4h ([1]; 0 h = 100%, experiment 3 of 3): 83.8816%
- Percentage intact, CWE 8h ([1]; 8 h, 0 h = 100%, experiment 1 of 3): 81.3497%
- Percentage intact, CWE 8h ([1]; 8 h, 0 h = 100%, experiment 2 of 3): 83.9314%
- Percentage intact, CWE 8h ([1]; 8 h, 0 h = 100%, experiment 3 of 3): 78.1579%
- Percentage intact, CWE 16h ([1]; 0 h = 100%, experiment 1 of 3): 71.6467%
- Percentage intact, CWE 16h ([1]; 0 h = 100%, experiment 2 of 3): 74.8159%
- Percentage intact, CWE 16h ([1]; 0 h = 100%, experiment 3 of 3): 54.5266%
- Percentage intact, CWE 24h ([1]; 24 h, 0 h = 100%, experiment 1 of 3): 54.5627%
- Percentage intact, CWE 24h ([1]; 24 h, 0 h = 100%, experiment 2 of 3): 58.7294%
- Percentage intact, CWE 24h ([1]; 24 h, 0 h = 100%, experiment 3 of 3): 52.1934%
- Percentage intact, CWE 48h ([1]; 0 h = 100%, experiment 1 of 3): 29.9428%
- Percentage intact, CWE 48h ([1]; 0 h = 100%, experiment 2 of 3): 34.7264%
- Percentage intact, CWE 48h ([1]; 0 h = 100%, experiment 3 of 3): 26.5123%
- Percentage intact, CWE 72h ([1]; 0 h = 100%, experiment 1 of 3): 20.4492%
- Percentage intact, CWE 72h ([1]; 0 h = 100%, experiment 2 of 3): 21.8694%
- Percentage intact, CWE 72h ([1]; 0 h = 100%, experiment 3 of 3): 20.7179%
- Percentage intact, CWE 96h ([1]; 0 h = 100%, experiment 1 of 3): 15.3884%
- Percentage intact, CWE 96h ([1]; 0 h = 100%, experiment 2 of 3): 19.0259%
- Percentage intact, CWE 96h ([1]; 0 h = 100%, experiment 3 of 3): 11.1869%
- remaining at 8 h, 0.5 mg/ml ([1]; human, chronic wound extracts (CWE), 1 mg/ml in PBS mixed 1:1 with CWE (1 mg/ml protein, pools of 5 donors), 8 h, 0 h = 100%, mean of 3 independent experiments, read-out: Original amount of peptide remaining intact after 8 h in CWE): 81%
- remaining at 24 h, 0.5 mg/ml ([1]; human, chronic wound extracts (CWE), 1 mg/ml in PBS mixed 1:1 with CWE (1 mg/ml protein, pools of 5 donors), 24 h, 0 h = 100%, mean of 3 independent experiments, read-out: Original amount of peptide remaining intact after 24 h in CWE): 55%
- metabolised at 8 h, 0.5 mg/ml ([1]; human, chronic wound extracts (CWE), incubation with chronic wound extracts, 8 h, read-out: Breakdown (degradation) in CWE in 8 h): ~20%
- Percentage intact, PBS 24h ([2]; experiment 1 of 3): 91.5758%
- Percentage intact, PBS 24h ([2]; experiment 2 of 3): 95.461%
- Percentage intact, PBS 24h ([2]; experiment 3 of 3): 100.575%
- Percentage intact, CWE + PIC 2h ([3]; experiment 1 of 3): 89.1635%
- Percentage intact, CWE + PIC 2h ([3]; experiment 2 of 3): 89.9717%
- Percentage intact, CWE + PIC 2h ([3]; experiment 3 of 3): 92.8798%
- Percentage intact, CWE + PIC 4h ([3]; experiment 1 of 3): 81.2396%
- Percentage intact, CWE + PIC 4h ([3]; experiment 2 of 3): 77.3258%
- Percentage intact, CWE + PIC 4h ([3]; experiment 3 of 3): 92.4896%
- Percentage intact, CWE + PIC 8h ([3]; experiment 1 of 3): 74.181%
- Percentage intact, CWE + PIC 8h ([3]; experiment 2 of 3): 79.1445%
- Percentage intact, CWE + PIC 8h ([3]; experiment 3 of 3): 86.6559%
- Percentage intact, CWE + PIC 16h ([3]; experiment 1 of 3): 65.982%
- Percentage intact, CWE + PIC 16h ([3]; experiment 2 of 3): 74.0107%
- Percentage intact, CWE + PIC 16h ([3]; experiment 3 of 3): 77.3109%
- Percentage intact, CWE + PIC 24h ([3]; 24 h, experiment 1 of 3): 76.8799%
- Percentage intact, CWE + PIC 24h ([3]; 24 h, experiment 2 of 3): 76.3765%
- Percentage intact, CWE + PIC 24h ([3]; 24 h, experiment 3 of 3): 70.9573%
- Percentage intact, CWE + PIC 48h ([3]; experiment 1 of 3): 68.226%
- Percentage intact, CWE + PIC 48h ([3]; experiment 2 of 3): 72.203%
- Percentage intact, CWE + PIC 48h ([3]; experiment 3 of 3): 63.9246%
- Percentage intact, CWE + PIC 72h ([3]; experiment 1 of 3): 63.1229%
- Percentage intact, CWE + PIC 72h ([3]; experiment 2 of 3): 65.5213%
- Percentage intact, CWE + PIC 72h ([3]; experiment 3 of 3): 53.9233%
- Percentage intact, CWE + PIC 96h ([3]; experiment 1 of 3): 57.543%
- Percentage intact, CWE + PIC 96h ([3]; experiment 2 of 3): 57.4907%
- Percentage intact, CWE + PIC 96h ([3]; experiment 3 of 3): 51.0863%
- remaining at 24 h, 0.5 mg/ml ([3]; human, with protease inhibitor cocktail (PIC), CWE with protease inhibitor cocktail (final 1:140 v/v), 24 h, mean of 3 independent experiments, read-out: Remaining fraction of intact peptide after 24 h in CWE + PIC): 74%
Substance: cyclo(DNLPETGGDSHEKRHHGYRRKFHEKHHSHREFPFYGDYGSNYLY) [cHst1]
